Assay results reported in patent US6417159B1 (Queen's University at Kingston, priority 1996, dated 2002).
Entries after “also recorded” stand apart in the source; their conditions may differ.

Key:
ED8 chick DRG neurons = assay: NGF-mediated neurite growth by ED8 chick DRG sensory neurons; assay type: cell-based
[1] = Precipitation out of aqueous solution; assay type: physicochemical
PC12 cells = assay: Uptake of [125I]NGF into PC12 cells; assay type: cell-based, rat; settings: 20 pM or 0.2 nM [125I]NGF; saturating R3
Method: PC12 cells were removed from culture dishes with CMF, washed, and incubated at a concentration of 10^6 per ml in Hepes-Krebs-Ringer (HKR) buffer buffer with 1 mg·ml^−1 BSA for 90 minutes at 37° C. in the presence of 40 pM [^125I]NGF in the absence and presence of excess unlabeled NGF, and in the absence and presence of R3 peptide. Aliquots of 100 μl were removed in replicates and mircocentrifuged at 10,000×g for 1 minute. Supernatants were removed, tips were cut from the microcentrifuge tube and counted in a gamma counter. Specific binding was defined as the difference between binding of the ligand in the absence and presence of unlabeled NGF, and fractional specific binding in the absence and presence of R3 peptide was compared. Studies of [^125I]NGF uptake into PC12 and PC12^nnr5 cells were carried out in the absence and presence of 10 μM R3 peptide and following a 24-hour exposure of PC12 cultures to 10 μM R3 peptide. Cells were eposed to 20 pM or 0.2 nM [^125I]NGF for periods of time up to 240 minutes (steady state) at 37° C. The cells were then briefly acid-washed as described by Bernd and Greene (1984), and aliquots were prepared for gamma counting as described. NGF was radioiodinated as described in Sutter et al. (1979b).

TrkA = target: T1, TrkA (Rattus norvegicus, UniProt P35739); assay: [125I]NGF affinity cross-linking to TrkA; assay type: binding; settings: PC12 cells, 50 μM R3
T1 construct: endogenous in cells; host or cells: PC12
Method: (§1) FIG. 7A illustrates the influence of peptide R3 on affinity cross-linking of TrkA and p75^NTR. Intact PC12 cells were treated with 50 μM R3 for 24 h (preinc.) in medium, harvested with CMF medium, and suspended at a concentration of 10^6·ml^−1 (or 10^7·m^−1 for immunoprecipitation studies) in HKR buffer. Cells were then incubated in the presence or absence of R3 (coinc.) for 15 min at 37° C. and cooled in ice. Cross-linking was performed by incubating cells with 1 nM [^125I]-NGF for 2 h at 4° C., adding EDC ([…]) and NHS (2 mM) or BS^3 (0.4 mM) as indicated, and incubating for 30 min at 25° C. Cells were washed three times in HKR buffer and the pellet dissolved in reducing SDS sample buffer or in lysis buffer (1% NP-40, 10% glycerol, 1 mM PMSF, 10 μg-ml^−1 aprotinin, 1 μg/ml leupeptin, […] o-vanadate in TBS) for immunoprecipitation (lanes 4 and 8). For immunoprecipitation, the cellular debris was removed by centrifugation and the supernatant incubated with 1 μg anti-p75^NTR monoclonal Ab 192 (Cedarlane Laboratories Ltd.) or 1 μg anti-TrkA polyclonal Ab (a gift from Dr. W. Mobley, University of California, San Francisco) for 4 h at 4° C. Immunoprecipates were isolated by incubating with 50 μl of a 50% solution of protein A-SEPHAROSE™ (anti-Trk) or goat anti-mouse agarose (Ab 192) for 2 h at 4° C. Precipitates were washed 3 times in lysis buffer and dissolved in sample buffer. […]

p75^NTR = target: T2, p75^NTR (Rattus norvegicus, UniProt P07174); assay: [125I]NGF affinity cross-linking to p75NTR; assay type: binding; settings: PC12 cells, 50 μM R3
T2 construct: endogenous in cells; host or cells: PC12
T2 sequence (P07174 30-425): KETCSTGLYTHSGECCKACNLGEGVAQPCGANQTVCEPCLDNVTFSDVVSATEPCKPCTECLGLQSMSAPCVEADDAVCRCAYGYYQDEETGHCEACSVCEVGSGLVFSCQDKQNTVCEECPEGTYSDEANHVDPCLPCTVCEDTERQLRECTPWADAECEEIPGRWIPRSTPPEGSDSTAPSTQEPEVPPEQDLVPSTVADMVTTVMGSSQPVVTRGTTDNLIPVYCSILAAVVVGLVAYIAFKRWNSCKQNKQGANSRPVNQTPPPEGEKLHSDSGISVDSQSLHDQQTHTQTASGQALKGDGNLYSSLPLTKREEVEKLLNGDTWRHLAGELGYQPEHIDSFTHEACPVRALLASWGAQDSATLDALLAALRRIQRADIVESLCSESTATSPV
Method: as §1

ciliary neurons = assay: CNTF survival effect on ciliary neurons; assay type: cell-based

T1 sequence (P35739 33-799): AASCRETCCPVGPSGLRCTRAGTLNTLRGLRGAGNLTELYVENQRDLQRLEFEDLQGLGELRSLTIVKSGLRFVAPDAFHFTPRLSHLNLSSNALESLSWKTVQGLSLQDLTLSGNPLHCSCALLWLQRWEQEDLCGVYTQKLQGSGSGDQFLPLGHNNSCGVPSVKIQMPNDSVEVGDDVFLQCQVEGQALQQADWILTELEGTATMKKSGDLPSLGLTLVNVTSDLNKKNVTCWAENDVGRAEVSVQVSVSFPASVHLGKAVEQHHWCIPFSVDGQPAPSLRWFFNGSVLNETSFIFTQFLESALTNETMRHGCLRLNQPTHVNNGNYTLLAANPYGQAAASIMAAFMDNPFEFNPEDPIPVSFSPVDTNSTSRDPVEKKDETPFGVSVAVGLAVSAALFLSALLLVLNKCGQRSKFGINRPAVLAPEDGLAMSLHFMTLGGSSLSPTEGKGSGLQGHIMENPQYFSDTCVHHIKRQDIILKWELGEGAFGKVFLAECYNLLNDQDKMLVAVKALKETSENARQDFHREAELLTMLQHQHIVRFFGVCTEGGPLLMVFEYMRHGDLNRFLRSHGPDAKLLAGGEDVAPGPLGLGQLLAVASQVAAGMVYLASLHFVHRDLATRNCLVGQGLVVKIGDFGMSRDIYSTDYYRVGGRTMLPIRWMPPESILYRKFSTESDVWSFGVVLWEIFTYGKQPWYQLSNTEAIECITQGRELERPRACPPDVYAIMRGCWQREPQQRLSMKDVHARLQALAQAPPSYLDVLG

Which “% of Control Response DRG” value (ED8 chick DRG neurons; (peptide with NGF − NGF alone)/(R3 with NGF − NGF alone) ×100, scored at 43, 44 and 48 hours, M ± SEM, n = 3 assays) does the source give for LDALLAALRRIQR [R3] here?
The value was 100 ± 16%.

And the “Effect on NGF-mediated neurite growth, co-incubation, in words” value (ED8 chick DRG neurons; ED8 chick DRG neurons, 10 μM R3)?
Its value is “enhancing effect; also recorded: markedly increased the response to NGF between 4 and 8 hours”.

What about the “Concentration at which the peptide tended to precipitate out of aqueous solution with time” value [1] of the same sequence?
The value was no less than 50 µM.

And the “Rates of [125I]NGF uptake, in words” value (PC12 cells)?
The value was “not influenced”.

What about the “Affinity cross-linking of [125I]NGF to TrkA monomers or homodimers, in words” value (TrkA) of the same sequence?
The value was “not affected”.

What about the “Affinity cross-linking of [125I]NGF to p75NTR monomers or homodimers, in words” value (p75^NTR) of the same sequence?
The value was “not affected”.

What about the “Influence on survival effect of CNTF on ciliary neurons, in words” value (ciliary neurons) of the same sequence?
Its value is “no influence”.
